In brackets after ≈: the same amount, converted by molar mass.
What was measured:
Assay in all cases: ≥ marks a high value that may be exact or a test limit, other limits are often not marked, values filed in µg/mL are converted to µM
[1] = test system: Vibrio parahaemolyticus CGMCC 1.1615
[2] = test system: Pseudomonas fluorescens CGMCC 1.0032
[3] = test system: Micrococcus luteus CGMCC 1.0634
Escherichia coli MC1061 = test system: Escherichia coli MC1061
[4] = test system: Vibrio alginolyticus CGMCC 1.1833
[5] = test system: Shigella flexneri CGMCC 1.1868
Edwardsiella tarda = test system: Edwardsiella tarda
[6] = test system: Vibrio fluvialis CGMCC 1.1609
[7] = test system: Corynebacterium glutamicum CGMCC 1.1886
[8] = test system: Candida albicans CGMCC 2.2411
[9] = test system: Staphylococcus aureus CGMCC 1.363
[10] = test system: Vibrio harveyi CGMCC 1.1593
Aeromonas sobria = test system: Aeromonas sobria
[11] = test system: Micrococcus luteus CGMCC 1.634
[12] = test system: Bacillus subtilis CGMCC 1.108
[13] = test system: Staphylococcus epidermidis CGMCC 1.2429
[14] = test system: Aeromonas hydrophila CGMCC 1.0927
[15] = test system: Staphylococcus aureus ATCC 33592
[16] = test system: Staphylococcus aureus NCTC 8530
[17] = test system: Candida albicans CPCC 400416
[18] = test system: Staphylococcus aureus CPCC 100520
[19] = test system: Escherichia coli CPCC 100521
[20] = test system: Escherichia coli CCARM 1238
[21] = test system: Staphylococcus aureus KCTC 1621
[22] = test system: Staphylococcus epidermidis KCTC 1917
[23] = test system: Escherichia coli CCARM 1229
[24] = test system: Escherichia coli KCTC 1682
[25] = test system: Pseudomonas aeruginosa CCARM 2002
[26] = test system: Salmonella typhimurium CCARM 8007
[27] = test system: Salmonella typhimurium CCARM 8003
[28] = test system: Acinetobacter baumannii CCARM 12035
[29] = test system: Staphylococcus aureus CCARM 3089
[30] = test system: Acinetobacter baumannii KCTC 2508
[31] = test system: Pseudomonas aeruginosa CCARM 2095
[32] = test system: Salmonella typhimurium KCTC 1926
[33] = test system: Staphylococcus aureus CCARM 3108
[34] = test system: Bacillus subtilis KCTC 3028
[35] = test system: Acinetobacter baumannii CCARM 12036
[36] = test system: Pseudomonas aeruginosa KCTC 1637
[37] = test system: Staphylococcus aureus CCARM 3126
[38] = test system: Staphylococcus aureus ATCC 25923
[39] = test system: Pseudomonas aeruginosa PAO1
[40] = test system: Escherichia coli ATCC 25922
Escherichia coli ML-35p = test system: Escherichia coli ML-35p
Staphylococcus aureus = test system: Staphylococcus aureus
Enterobacter cloacae = test system: Enterobacter cloacae
Pseudomonas aeruginosa = test system: Pseudomonas aeruginosa
Klebsiella aerogenes = test system: Klebsiella aerogenes
Escherichia coli = test system: Escherichia coli
[41] = test system: Pseudomonas aeruginosa ATCC 27853

**Q.** Which results are given for `CC[C@H](C)[C@H](NC(=O)[C@H](CCCN=C(N)N)NC(=O)CNC(=O)[C@@H](N)C(C)C)C(=O)N[C@@H](Cc1cnc[nH]1)C(=O)N[C@@H](CCCN=C(N)N)C(=O)N[C@@H](Cc1cnc[nH]1)C(=O)N[C@@H](CC(C)C)C(=O)N[C@@H](CCCCN)C(=O)O` [VGRIHRHLK]?
**A.** MIC [1]: ≥ 48 µM; MIC [2]: 8.49 µM (≈ 9.46 µg/mL); MIC [3]: ≥ 48 µM; MIC (Escherichia coli MC1061): ≥ 48 µM; MIC [4]: ≥ 48 µM; MIC [5]: ≥ 48 µM; MIC (Edwardsiella tarda): ≥ 48 µM; MIC [6]: ≥ 48 µM; MIC [7]: 17 µM (≈ 18.9 µg/mL); MIC [8]: ≥ 48 µM; MIC [9]: 17 µM (≈ 18.9 µg/mL); MIC [10]: ≥ 48 µM; MIC (Aeromonas sobria): ≥ 48 µM; MIC [11]: 8.49 µM (≈ 9.46 µg/mL); MIC [12]: ≥ 48 µM; MIC [13]: ≥ 48 µM; MIC [14]: ≥ 48 µM

**Q.** For `CC[C@H](C)[C@H](NC(=O)[C@H](CCCCN)NC(=O)[C@H](CCCN=C(N)N)NC(=O)[C@@H](N)CCCCN)C(=O)N[C@@H](Cc1ccccc1)C(=O)N[C@@H](CC(C)C)C(=O)N[C@@H](CCCN=C(N)N)C(=O)N[C@H](C(=O)N[C@@H](CCCCN)C(=O)N[C@H](C(=O)N[C@@H](CC(C)C)C(=O)N[C@H](C(=O)O)C(C)C)[C@@H](C)CC)[C@@H](C)O` [KRKIFLRTKILV], which MIC [15] is on record?
**A.** 3 µM (≈ 4.54 µg/mL)

**Q.** What about the MIC [16] of the same compound?
**A.** 3 µM (≈ 4.54 µg/mL)

**Q.** What does the source list for `CC[C@H](C)[C@H](NC(=O)CN)C(=O)NCC(=O)NCC(=O)N[C@@H](C)C(=O)N[C@@H](CC(C)C)C(=O)N[C@@H](CC(C)C)C(=O)N[C@@H](CO)C(=O)N[C@@H](C)C(=O)NCC(=O)N[C@@H](CCCCN)C(=O)N[C@@H](CO)C(=O)N[C@@H](C)C(=O)N[C@@H](CC(C)C)C(=O)N[C@@H](CCCCN)C(=O)NCC(=O)N[C@@H](CC(C)C)C(=O)N[C@@H](C)C(=O)N[C@@H](CCCCN)C(=O)NCC(=O)N[C@@H](CC(C)C)C(=O)N[C@@H](C)C(=O)N[C@@H](CCC(=O)O)C(=O)N[C@@H](Cc1cnc[nH]1)C(=O)N[C@@H](Cc1ccccc1)C(=O)N[C@@H](C)C(=O)N[C@@H](CC(N)=O)C(N)=O` [GIGGALLSAGKSALKGLAKGLAEHFAN]?
**A.** MIC [17]: 12.5 µM (≈ 31.9 µg/mL); MIC [18]: 6.3 µM (≈ 16.1 µg/mL); MIC [19]: 6.3 µM (≈ 16.1 µg/mL)

**Q.** Which MIC [20] does the source give for `CC[C@H](C)[C@H](NC(=O)[C@H](C)NC(=O)[C@H](CCCCN)NC(=O)[C@H](Cc1cnc[nH]1)NC(=O)[C@@H](NC(=O)[C@@H]1CCCN1C(=O)[C@H](CCC(N)=O)NC(=O)[C@H](Cc1ccccc1)NC(=O)[C@@H](NC(=O)[C@H](CCCCN)NC(=O)[C@H](CCCCN)NC(=O)[C@H](CC(C)C)NC(=O)[C@H](C)NC(=O)[C@H](CC(N)=O)NC(=O)[C@H](CC(C)C)NC(=O)CN)C(C)C)[C@@H](C)CC)C(=O)N[C@@H](CCCCN)C(=O)N[C@@H](CCCCN)C(=O)N[C@H](C(=O)N[C@@H](CC(N)=O)C(=O)N[C@@H](CC(N)=O)C(=O)N[C@@H](Cc1cnc[nH]1)C(=O)N[C@H](C(=O)N[C@@H](CCC(N)=O)C(=O)O)C(C)C)[C@@H](C)CC` [GLNALKKVFQPIHKAIKKINNHVQ] here?
**A.** 8 µM (≈ 21.9 µg/mL)

**Q.** And the MIC [21]?
**A.** ≥ 32 µM

**Q.** And the MIC [22]?
**A.** ≥ 64 µM

**Q.** And the MIC [23]?
**A.** 8 µM (≈ 21.9 µg/mL)

**Q.** And the MIC [24]?
**A.** 4 µM (≈ 11 µg/mL)

**Q.** And the MIC [25]?
**A.** 16 µM (≈ 43.8 µg/mL)

**Q.** And the MIC [26]?
**A.** 16 µM (≈ 43.8 µg/mL)

**Q.** What about the MIC [27] of the same compound?
**A.** 16 µM (≈ 43.8 µg/mL)

**Q.** And the MIC [28]?
**A.** 16 µM (≈ 43.8 µg/mL)

**Q.** And the MIC [29]?
**A.** ≥ 32 µM

**Q.** What about the MIC [30] of the same compound?
**A.** 8 µM (≈ 21.9 µg/mL)

**Q.** What about the MIC [31] of the same compound?
**A.** 16 µM (≈ 43.8 µg/mL)

**Q.** And the MIC [32]?
**A.** 8 µM (≈ 21.9 µg/mL)

**Q.** And the MIC [33]?
**A.** ≥ 32 µM

**Q.** And the MIC [34]?
**A.** ≥ 32 µM

**Q.** And the MIC [35]?
**A.** 8 µM (≈ 21.9 µg/mL)

**Q.** What about the MIC [36] of the same compound?
**A.** 8 µM (≈ 21.9 µg/mL)

**Q.** What about the MIC [37] of the same compound?
**A.** ≥ 64 µM

**Q.** Which results are given for `CC[C@H](C)[C@H](NC(=O)[C@@H](NC(=O)[C@H](CCCN=C(N)N)NC(=O)[C@@H]1CCCN1C(=O)[C@H](CCCCN)NC(=O)[C@H](CCCCN)NC(=O)[C@H](Cc1ccccc1)NC(=O)[C@H](Cc1ccccc1)NC(=O)[C@H](CCCCN)NC(=O)[C@H](CCCCN)NC(=O)[C@H](C)N)C(C)C)C(=O)NCC(=O)N[C@H](C(=O)N[C@@H](CO)C(=O)N[C@H](C(=O)N1CCC[C@H]1C(=O)N[C@@H](Cc1ccccc1)C(=O)O)[C@@H](C)CC)C(C)C` [AKKFFKKPRVIGVSIPF]?
**A.** MIC [38]: 21.4 µM (≈ 42 µg/mL); MIC [39]: 6.62 µM (≈ 13 µg/mL); MIC [40]: 1.53 µM (≈ 3 µg/mL); MIC (Escherichia coli ML-35p): 2.55 µM (≈ 5 µg/mL); MIC (Staphylococcus aureus): 5.1 µM (≈ 10 µg/mL); MIC (Enterobacter cloacae): 10.7 µM (≈ 21 µg/mL); MIC (Pseudomonas aeruginosa): 6.62 µM (≈ 13 µg/mL); MIC (Klebsiella aerogenes): 13.8 µM (≈ 27 µg/mL); MIC (Escherichia coli): 2.04 µM (≈ 4 µg/mL); MIC [41]: 3.57 µM (≈ 7 µg/mL)

Source: DBAASP
